Data reported in PubChem BioAssay (NCI).
Several values for one entry are separate records, joined by “and”; a condition that tells them apart may be missing. Equal values may be shown once.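 Five compound concentrations were applied to cells in 96-well plates for 48 hours; endpoints were derived by simple linear interpolation of the resulting dose-response curve. Abbreviation: GI50, concentration required for 50% inhibition of growth. At the TGI there is no net growth.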

Legend:
Assay in all cases: DTP human tumour cell line panel, 48 h
HCT-116 colon = tested on: HCT-116 colon
HOP-62 NSCLC = tested on: HOP-62 NSCLC
HS 578T breast = tested on: HS 578T breast
LOX IMVI melanoma = tested on: LOX IMVI melanoma
MCF7 breast = tested on: MCF7 breast
OVCAR-4 ovarian = tested on: OVCAR-4 ovarian
SF-539 CNS = tested on: SF-539 CNS
SNB-75 CNS = tested on: SNB-75 CNS
U251 CNS = tested on: U251 CNS
UACC-257 melanoma = tested on: UACC-257 melanoma

Compound | GI50 (HCT-116 colon) | TGI (HCT-116 colon) | GI50 (HOP-62 NSCLC) | TGI (HOP-62 NSCLC) | GI50 (HS 578T breast) | TGI (HS 578T breast) [µM] | GI50 (LOX IMVI melanoma) | TGI (LOX IMVI melanoma) | GI50 (MCF7 breast) | TGI (MCF7 breast) | GI50 (OVCAR-4 ovarian) | TGI (OVCAR-4 ovarian) | GI50 (SF-539 CNS) | TGI (SF-539 CNS) | GI50 (SNB-75 CNS) | TGI (SNB-75 CNS) | GI50 (U251 CNS) | TGI (U251 CNS) | GI50 (UACC-257 melanoma) | TGI (UACC-257 melanoma)
COc1cc(-c2nn(-c3cccc(NC(=O)NCCNC(=O)c4ccccc4)c3)cc2-c2ccncc2)ccc1Cl | 0.392 µM | > 100 µM | 3.95 µM | > 100 µM | 6.29 µM | > 100 | 2.46 µM | > 100 µM | 2.22 µM | > 100 µM | 3.03 µM | > 100 µM | 0.859 µM | 7.44 µM | 5.84 µM | > 100 µM | 2.62 µM | > 100 µM | 3.96 µM | 21.1 µM
CC(=O)Nc1ccc(S(=O)(=O)N2C(=O)CCC2C(=O)Nc2ccccc2)cc1 (stereo not drawn) | 0.389 µM | 20 µM | 0.879 µM | 13.4 µM | 2.71 µM | 36.2 | 0.0482 µM | 13.2 µM | 0.73 µM | 14.7 µM | 0.698 µM | 10.8 µM | 0.542 µM | 4.4 µM | 1.63 µM | 6.86 µM | 1.59 µM | 13.3 µM | 1.34 µM | 17.2 µM
N/C(=N\O)c1cn(C2OC(CO)C(O)C2O)c2ncnc(N)c12 (stereo not drawn) | 0.0633 µM | > 100 µM | 0.468 µM | > 68.7 µM | 0.263 µM | 3.62 | 0.153 µM | 0.501 µM | 0.056 µM | 1.07 µM | 0.177 µM | 4.05 µM | 0.255 µM | 3.51 µM | 0.18 µM | 6.17 µM | 0.185 µM | > 71.7 µM | 0.177 µM | 0.705 µM
CC1(C)CCC(c2ccc(Cl)cc2)=C(CN2CCN(c3ccc(C(=O)NS(=O)(=O)c4ccc(N[C@H](CCN5CCOCC5)CSc5ccccc5)c(S(=O)(=O)C(F)(F)F)c4)cc3)CC2)C1 | 1.69 µM | 3.11 µM | 1.73 µM | 3.26 µM | 2.66 µM | > 24.5 | 1.4 µM | 2.74 µM | 2.11 µM | 5.51 µM | 1.22 µM | 2.52 µM | 2.08 µM | 4.22 µM | 2.05 µM | 4.16 µM | 1.9 µM | 3.43 µM | 1.63 µM | 3.4 µM
O=C(N=Nc1c(O)[nH]c2c(Cl)cc(Cl)cc12)C(=O)Nc1cccc(C(F)(F)F)c1 | – | > 100 µM | – | > 100 µM | – | > 100 | – | > 100 µM | – | > 100 µM | – | > 100 µM | – | > 100 µM | – | > 100 µM | – | > 100 µM | – | > 100 µM
Nc1nc(-c2ccccn2)c(-c2ccc3ncccc3n2)s1 | > 25 µM | > 25 µM | > 25 µM | > 25 µM | > 25 µM | > 25 | > 25 µM | > 25 µM | > 25 µM | > 25 µM | > 25 µM | > 25 µM | > 25 µM | > 25 µM | > 25 µM | > 25 µM | > 25 µM | > 25 µM | > 25 µM | > 25 µM
Nc1c2ccccc2nc2ccccc12 | 0.702 µM and 2.17 µM | 8.31 µM and 10.5 µM | 1.66 µM and 3.66 µM | 4.96 µM and 15.2 µM | 2.45 µM and 8.09 µM | – | 1.77 µM and 1.69 µM | 5.12 µM and 3.5 µM | 1.62 µM and 3.02 µM | 9.14 µM and 10.8 µM | 1.02 µM and 2.69 µM | 6.38 µM and 7.3 µM | 2.56 µM and 4.87 µM | 7.93 µM and 16.2 µM | 2.46 µM and 3.11 µM | 6 µM and 10.4 µM | 2.16 µM and 3.34 µM | 8 µM and 13.1 µM | 1.54 µM and 3.21 µM | 3.06 µM and 10.1 µM
N#CSc1c[nH]c2cccc(/C=C/C(=O)/C=C(O)/C=C/c3cccc4[nH]cc(SC#N)c34)c12 | 0.109 µM | 0.421 µM | 1.15 µM | 4.35 µM | 0.779 µM | 9.48 | 0.148 µM | 0.547 µM | 0.254 µM | 1.45 µM | 0.216 µM | 1.72 µM | 0.559 µM | 1.36 µM | 0.67 µM | 2.68 µM | 0.185 µM | 1.14 µM | 0.944 µM | 3.38 µM
CC[C@@]12CC(C(=O)OC)=C3Nc4ccccc4[C@@]34CCN(C[C@H]3O[C@H]31)[C@@H]24 | 43.8 µM | > 100 µM | 94.9 µM | > 100 µM | 25.4 µM | > 100 | 34.8 µM | > 100 µM | 46 µM | > 100 µM | 82.5 µM | > 100 µM | 61.2 µM | > 100 µM | 14.8 µM | 64.9 µM | 43 µM | > 100 µM | 66.7 µM | > 100 µM
c1c[nH]c(CN2CCN(Cc3ncc[nH]3)CC2)n1 | – | > 100 µM | – | > 100 µM | – | > 100 | – | > 100 µM | – | > 100 µM | – | > 100 µM | – | > 100 µM | – | > 100 µM | – | > 100 µM | – | > 100 µM
O=C1Nc2ccc(I)cc2/C1=C/c1cc(Br)c(O)c(Br)c1 | > 17.2 µM and 15.2 µM | > 25 µM and 32.8 µM | > 25 µM and 21.9 µM | > 25 µM and 46.9 µM | > 17.9 µM and 21.3 µM | > 80.4 | > 17.5 µM and 16.2 µM | > 79 µM | > 20.1 µM and 15.4 µM | > 82.2 µM | 24.8 µM and 23.3 µM | > 100 µM | > 20.2 µM and 14.1 µM | > 25 µM and 43.8 µM | > 25 µM and 22.2 µM | > 90.3 µM | > 24.1 µM and 15.1 µM | > 25 µM and 36.3 µM | > 20.7 µM and 16.5 µM | > 25 µM and 69.2 µM
Fc1cnccc1-c1nc2ccc3[nH]ncc3c2c2c1CCCC2 | 0.489 µM | 5.03 µM | 0.909 µM | 94.2 µM | 0.661 µM | 6.7 | 1.58 µM | 12.6 µM | 1.93 µM | 12.1 µM | 3.5 µM | > 100 µM | 1.29 µM | 4.54 µM | 1.41 µM | 5.54 µM | 1.96 µM | > 100 µM | 5.48 µM | > 100 µM
O=C(/C=C/c1ccccc1)c1ccccn1 | 6.9 µM and 15.4 µM | 19.4 µM and 30.3 µM | 13.9 µM and 34.7 µM | 29.3 µM and > 100 µM | – | 77.3 | – | 23.9 µM and 34.8 µM | – | 37.1 µM | – | 54.8 µM and 47.2 µM | – | 42.4 µM | – | 37.5 µM and 92.7 µM | – | 30.5 µM and 35.9 µM | – | 26.9 µM and 32.3 µM
Nc1nc(N)c2nc(CNc3ccc(C(=O)NC(CCC(=O)O)C(=O)O)cc3)cnc2n1 (stereo not drawn) | < 0.01 µM | > 100 µM | 0.0408 µM and < 0.01 µM | > 100 µM | > 100 µM | > 100 | < 0.01 µM | > 100 µM | 0.0101 µM and < 0.01 µM | > 100 µM | – | > 100 µM | 0.0204 µM and < 0.01 µM | > 100 µM | – | > 100 µM | 0.0468 µM and < 0.0107 µM | > 100 µM | 0.0942 µM and 0.0723 µM | > 100 µM
O=c1[nH]c2c(ccc3cnccc32)c2c1CCC2 | 0.267 µM | > 45.8 µM | 0.431 µM | > 100 µM | 0.247 µM | 0.808 | 0.282 µM | > 33.2 µM | 0.317 µM | – | 0.726 µM | > 100 µM | 0.219 µM | 0.585 µM | 0.324 µM | 1.4 µM | 0.33 µM | > 100 µM | 0.245 µM | 0.833 µM
N#CCC1CCN(c2nc(Nc3ccc(N4CCC(O)CC4)cc3)c3c(=O)[nH]ncc3n2)CC1 | 0.345 µM | > 100 µM | 0.801 µM | > 100 µM | 0.22 µM | 1.23 | 0.489 µM | > 100 µM | 0.297 µM | > 100 µM | > 58.1 µM | > 100 µM | 0.869 µM | 2.82 µM | 0.337 µM | 2.43 µM | 1.03 µM | > 100 µM | > 100 µM | > 100 µM
O=C(CNC(=O)c1cccc2ccccc12)Nc1ccccc1Oc1ccc(O)cc1 | 0.978 µM | > 25 µM | 1.35 µM | > 25 µM | 1.34 µM | > 25 | 1.72 µM | > 25 µM | 0.847 µM | > 25 µM | 2.8 µM | > 25 µM | 0.688 µM | 2.45 µM | 0.591 µM | > 25 µM | 1.41 µM | > 25 µM | > 25 µM | > 25 µM
NC1=Nc2cc(OCCCCN3Cc4ccccc4C3)c(OCC3CC3)cc2C12CCCC2 | 1.2 µM | 2.56 µM | 1.63 µM | 3.39 µM | 1.49 µM | 4.18 | 1.69 µM | 3.09 µM | 1.37 µM | 2.99 µM | 3.11 µM | 14.7 µM | 1.53 µM | 2.91 µM | 1.19 µM | 2.48 µM | 1.53 µM | 3.11 µM | 1.62 µM | 3.48 µM
